Measured values reported in paper PMC10215143, “D- and N-Methyl Amino Acids for Modulating the Therapeutic Properties of Antimicrobial Peptides and Lipopeptides” (Antibiotics, 2023).
≈ marks a conversion by molar mass, not a printed value. Like-named read-outs stand apart in the source and are kept apart here. Where a SMILES comes first, the peptide text is derived from it. Where no end group is shown, it is not given here. [ ]: non-standard residue; d: D form. The star is where a group is joined. Decanoyl = CCCCCCCCCC(=O)*

Assays:
[1] = in vitro; details: human, 50% (v/v) human serum in phosphate buffer, pH 7.2
Protocol: A 50% (v/v) human serum solution in phosphate buffer (pH: 7.2) was added to the peptide solution (concentration: 2 mg/mL) and incubated for 8 h at 37 °C. Aliquots were taken at different time points (0, 30, 60, 120, 240, 360, and 480 min) and serum proteins were immediately precipitated with a mixture of ACN-water-TFA (89:10:1). They were kept at 4 °C for 45 min and then centrifuged for 15 min at 10,000 rpm. The supernatants were then analyzed by HPLC-RP using a C18 analytical column (Beckman, Indianapolis, IN, USA). A linear gradient from 5% to 50% of ACN in H2O containing 0.1% TFA was used, at a flow rate of 0.8 mL/min. Absorbance was measured at 220 nm. […] The test was conducted in duplicate.

[2] = system: Gram (−) bacteria; details: for MIC Average Bacteria Gram (−): average over Gram (−) strains; for TI Bacteria Gram (−), HC50/MIC average: first value of the cell, a single value holds for HC50 and IC50 (400 µM used); for TI Bacteria Gram (−), IC50/MIC average: second value of the cell, HeLa IC50 based
Protocol: (§1) The MIC against bacterial strains was determined by the modified broth microtiter dilution method, following the procedures proposed by R.E.W. Hancock Laboratory for testing antimicrobial peptides. The target strains Escherichia coli ATCC 35218, Pseudomonas aeruginosa ATCC 27853, Enterococcus faecalis ATCC 29212, and Staphylococcus aureus ATCC 25923 belong to the American Type Culture Collection (ATCC). The Methicillin-Resistant Staphylococcus aureus BSF FBCB1313 strain (MRSA) was provided by the Clinical Bacteriology Section of FBCB-UNL. All strains were activated by culture for 24 h at 37 °C in Mueller-Hinton Broth (MHB) (Biokar Diagnostics, Cedex, France). Each inoculum was taken and adjusted to a cellular concentration of 5 × 10^5 colony-forming units (CFU)/mL in diluted MHB. All the peptides were dissolved in bovine serum albumin buffer with the addition of 0.01% acetic acid; 100 µL of each inoculum was added to 11 µL of peptide solution in serial 2-fold dilutions and were incubated for 18–24 h at 37 °C. The MIC was the lowest peptide concentration that inhibited visible growth of each bacterial strain. The test was conducted in triplicate.
(§2) The TI is defined as the relationship between the concentration that caused 50% of hemolysis (HC50) or a 50% reduction in HeLa cell viability and the MIC. Thus, higher TI values indicate greater antimicrobial specificity. […] The average MIC for each peptide against different microorganism groups was used to calculate the TI value.

[3] = system: Gram (+) bacteria; details: for MIC Average Bacteria Gram (+): average over Gram (+) strains; for TI Bacteria Gram (+), HC50/MIC average: first value of the cell, a single value holds for HC50 and IC50 (400 µM used); for TI Bacteria Gram (+), IC50/MIC average: second value of the cell, HeLa IC50 based
Protocol: as §1, §2

[4] = system: HeLa cells; details: for IC50: 24 h
Protocol: We assessed the cytotoxicity of the compounds synthesized using HeLa cells.
The 3–4,5-dimethylthiazol-2,5-biphenyl tetrazolium bromide (MTT) cell viability assay was used to assess the cytotoxic activity of synthetic compounds against the human HeLa line. HeLa cells were seeded in 96-well plates at 1 × 10^5 cells/well, in which the peptide solution was added at different concentrations (3.125–400 μM) for 24 h of incubation. Next, MTT reagent (Sigma-Aldrich, St. Louis, MO, USA) was added, and the cells were incubated for 2 h. Then, 100 μL of dimethylsulfoxide (DMSO) was added to each well to dissolve formazan crystals, and the plates were read at 595 nm.

[5] = system: S. aureus ATCC 25923; format: cell-based, Staphylococcus aureus
Protocol: (§3) The test was conducted in triplicate.

[6] = system: E. coli ATCC 35218; format: cell-based, Escherichia coli; details: ATCC 35218, 24 h
Protocol: as §3

[7] = system: C. albicans PEEC 2; format: cell-based, Candida albicans; details: PEEC 2, 24 h
Protocol: (§4) Each inoculum was taken and the cellular concentration was adjusted to 2 × 10^3 CFU/mL in Sabouraud Dextrose Broth (SDB) (Biokar Diagnostics, Cedex, France). Next, 50 µL of these inocula was added to 50 µL of peptide solution in serial 2-fold dilutions. […] […] The test was conducted in triplicate.

[8] = system: P. aeruginosa ATCC 27853; format: cell-based, Pseudomonas aeruginosa; details: ATCC 27853, 24 h
Protocol: as §3

[9] = system: Yeast; details: cited from earlier work
[10] = system: C. tropicalis DBFIQ 3; format: cell-based, Candida tropicalis; details: DBFIQ 3, 24 h
Protocol: as §4

[11] = at 200 μM; cited from earlier work
[12] = system: Yeast; details: for MIC Average Yeast: 24 h; for TI Yeast, HC50/MIC average: first value of the cell, a single value holds for HC50 and IC50 (400 µM used); for TI Yeast, IC50/MIC average: second value of the cell, HeLa IC50 based
Protocol: Each inoculum was taken and the cellular concentration was adjusted to 2 × 10^3 CFU/mL in Sabouraud Dextrose Broth (SDB) (Biokar Diagnostics, Cedex, France). Next, 50 µL of these inocula was added to 50 µL of peptide solution in serial 2-fold dilutions. […] The MIC was considered the lowest peptide concentration that inhibited visible growth of each yeast strain. The test was conducted in triplicate.
as §2

[13] = system: E. faecalis ATCC 29212; format: cell-based, Enterococcus faecalis
Protocol: as §3

[14] = Hemolysis assay; format: cell-based, human; details: human, erythrocytes (red blood cells); at higher concentrations (400 μM)
Protocol: (§5) Hemolytic activity was determined using red blood cells and the hemoglobin released was measured at 405 nm. The percentage of hemolysis corresponding to the synthetic compounds is shown in Figure 1 while the HC50 values are provided in Table 3. […] Substitutions by N-methyl and D-amino acids reduced the hemolytic activity of the peptides and lipopeptides. […] For all the peptides and most of the lipopeptides, the HC50 values exceeded 400 μM. Indeed, the HC50 values were lower only for C10:0-A2(9-NMeLys) and C10:0-A2, which were around 300 and 200 μM, respectively.
(§6) Erythrocyte lysis was determined using the following previously optimized protocols. Human erythrocytes from a healthy voluntary donor were isolated by centrifugation (3000 rpm for 10 min) after washing three times with Physiological Solution (PS). Erythrocyte solutions were prepared at a concentration of 0.4% (v/v) in PS. Test tubes containing 200 µL of erythrocyte solution were incubated at 37 °C for 60 min with 200 µL of peptide solution at concentrations ranging from 6.25 to 400 µM. After centrifugation at 3000 rpm for 5 min, supernatant absorbance was measured at 405 nm. Lysis induced by 1% Triton X-100 was taken as a 100% reference value.

[15] = system: Human erythrocytes; test: Hemolysis assay; format: cell-based; details: human erythrocytes 0.4% (v/v), 37 °C, 60 min, 6.25 to 400 µM
Protocol: as §5, §6

[16] = system: S. aureus RM * SA1 (Methicillin-resistant Staphylococcus aureus); details: S. aureus RM * SA1 (MRSA)
[17] = Critical micelle concentration by conductimetry in Milli-Q water; format: physicochemical; details: 25 °C
Protocol: On the other hand, acylation confers that the peptide has capacity to self-assemble into nanostructures, resulting in a surfactant-like structure, which may affect the extent of peptide insertion and disruption of bacterial membrane integrity. In this work, the CMC of the lipopeptides was determined by conductimetry in Milli-Q water. All the lipopeptides adopted a micellar assembly with CMC values ranging from 2.0 to 5.7 mM (Table 1). […] This effect appeared to be more important when substitution by an N-methyl amino acid was performed on amino acids located on the non-polar face of the amphipathic helix (CMC values of C10:0-A2(8-NMePhe) = 2.01 mM). For all the lipopeptides, the CMC values remained above the MIC values, which could indicate that these molecules interact with the cell membrane as monomers and, consequently, that this property would not be necessary for antimicrobial activity. This notion is in concordance with reports in the literature on short cationic lipopeptides.
A lipopeptide solution was prepared in Milli Q water, and the specific conductivity of each lipopeptide solution, in a concentration ranging from 0.06 to 18 mg/mL, was measured using a drop conductivity meter (HORIBA, Kyoto, Japan), at 25 °C. Conductivity values were plotted vs. lipopeptide concentration (mS × cm^−1 vs. mg/mL), and the CMC was graphically determined.

[18] = system: chymotrypsin
Protocol: (§7) The enzymatic stability of the peptides and lipopeptides was determined by measuring residual antimicrobial activity using the agar diffusion method [42]. To this end, 60 µL of the peptide (treated and untreated) in phosphate buffer (0.1 mM pH: 5.5) was added to a 7 mm well on an agar plate previously seeded with 1 mL of a fresh culture of S. aureus ATCC 25923. The plates were incubated for between 18 and 24 h at 37 °C, and then the inhibition halo diameter was measured. The test was conducted in duplicate.

[19] = system: trypsin; details: after 7 h of treatment
Protocol: as §7

Row | Compound | remaining at 1 h [1] [%] | MIC Average Bacteria Gram (−) [2] [µM] | TI Bacteria Gram (−), HC50/MIC average [2] | TI Bacteria Gram (−), IC50/MIC average [2] | MIC Average Bacteria Gram (+) [3] [µM] | TI Bacteria Gram (+), HC50/MIC average [3] | TI Bacteria Gram (+), IC50/MIC average [3] | IC50 [4] [µM] | reduction of HeLa viability ([4]; HeLa cells, MTT) | MIC ([5]; ATCC 25923, 24 h) [µM] | MIC [6] [µM] | MIC [7] [µM] | MIC [8] [µM] | MIC [10] [µM] | hemolysis [11] | MIC Average Yeast [12] [µM] | TI Yeast, HC50/MIC average [12] | TI Yeast, IC50/MIC average [12] | HC50 ± SD [15] [µM] | MIC [16] [µM] | further results
1 | KLFKKLFKKLFK-NH2 [TA4, KLFKKLFKKLFK-NH2] | ~40 | 3.9 | 102.6 | 11.9 | 6.0 | 66.7 | 7.7 | 46.4 ± 10.1 | more than 60% | 2.6 | 5.1 | 40.8 | 2.6 | 40.8 | around 40% | 40.8 | 9.8 | 1.1 | >400 | 10.2 | IC50 ([4]; read-out: IC50 ± SD, HeLa cells, MTT, 3.125–400 μM): 46 µM; MIC ([9]; against yeast): 40.8 µM; MIC ([13]; ATCC 29212, 24 h): 5.1 µM; hemolysis at 60 min, 400 µM [14]: ~65%
2 | CCCCCCCCCC(=O)N[C@H](C(=O)N[C@@H](CCCCN)C(=O)N[C@@H](CCC(N)=O)C(=O)N[C@H](C(=O)N[C@@H](CCCCN)C(=O)N[C@@H](CCCCN)C(=O)N[C@@H](CC(C)C)C(=O)N[C@@H](Cc1ccccc1)C(=O)N[C@@H](CCCCN)C(=O)N[C@@H](CCCCN)C(N)=O)C(C)C)[C@@H](C)CC [C10:0-A2, C10:0-IKQVKKLFKK-NH2] (Decanoyl-IKQVKKLFKK-NH2) | ~20 | 1.4 (≈ 1.98 µg/mL) | 144.9 | 23.3 | 1.9 (≈ 2.68 µg/mL) | 106.8 | 17.2 | 32.6 ± 2.49 | more than 60% | 1.4 (≈ 1.98 µg/mL) | 1.4 (≈ 1.98 µg/mL) | 90.6 (≈ 128 µg/mL) | 1.4 (≈ 1.98 µg/mL) | 90.6 (≈ 128 µg/mL) | around 50% | 90.6 (≈ 128 µg/mL) | 2.2 | 0.4 | 202.9 ± 17.5 | 2.8 (≈ 3.96 µg/mL) | CMC [17]: 5.74 mM; MIC ([9]; yeast): 90.6 µM (≈ 128 µg/mL); MIC ([13]; ATCC 29212, 24 h): 1.4 µM (≈ 1.98 µg/mL); hemolysis at 60 min, 400 µM [14]: ~45%
3 | CCCCCCCCCC(=O)N[C@H](C(=O)N[C@H](CCCCN)C(=O)N[C@@H](CCC(N)=O)C(=O)N[C@H](C(=O)N[C@H](CCCCN)C(=O)N[C@H](CCCCN)C(=O)N[C@@H](CC(C)C)C(=O)N[C@@H](Cc1ccccc1)C(=O)N[C@H](CCCCN)C(=O)N[C@H](CCCCN)C(N)=O)C(C)C)[C@@H](C)CC [C10:0-A2(dK), C10:0-IdKQVdKdKLFdKdK-NH2] (Decanoyl-I[dK]QV[dK][dK]LF[dK][dK]-NH2) |  | 12.1 (≈ 17.1 µg/mL) | 33.1 |  | >90.6 | <4.4 |  | > 400 |  |  | 22.6 (≈ 31.9 µg/mL) | 90.6 (≈ 128 µg/mL) | 1.6 (≈ 2.26 µg/mL) | 181.2 (≈ 256 µg/mL) |  | 135.9 (≈ 192 µg/mL) | 2.9 |  | >400 | >90.6 | retained antimicrobial activity ([18]; after 3 h of treatment): 75%; residual antimicrobial activity ([18]; after more than 3 h of treatment, in words): total loss of activity; MIC ([5]; S. aureus ATCC 25923): >90.6 µM; retained inhibition activity against S. aureus strain ATCC 25923 [19]: 80%; MIC ([13]; E. faecalis ATCC 29212): >90.6 µM
